The supplement of paper PMC10307832

Key:
Assay in all cases: relative viability (nuclei count vs DMSO), 5 days (fraction); higher = more cells survive
Pictilisib + Navitoclax = compound: CS(=O)(=O)N1CCN(Cc2cc3nc(-c4cccc5[nH]ncc45)nc(N4CCOCC4)c3s2)CC1 [Pictilisib] + CC1(C)CCC(c2ccc(Cl)cc2)=C(CN2CCN(c3ccc(C(=O)NS(=O)(=O)c4ccc(N[C@H](CCN5CCOCC5)CSc5ccccc5)c(S(=O)(=O)C(F)(F)F)c4)cc3)CC2)C1 [Navitoclax] (partner 0.5 µM)
Method in brief: (§1)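 Medians of duplicate plates are given as relative viability. That measure is the nuclei count in treated wells divided by the count in vehicle wells. Counts were taken on 4× images of lung cancer cell lines in 1536-well plates, 5 days after pin-tool dosing the day after seeding with one drug alone or a fixed anchor-drug dose plus five library-drug doses (not always all listed) in √10 steps.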

MK-2206 + Decitabine = compound: NC1(c2ccc(-c3nc4ccn5c(=O)[nH]nc5c4cc3-c3ccccc3)cc2)CCC1 [MK-2206] + Nc1ncn([C@H]2C[C@H](O)[C@@H](CO)O2)c(=O)n1 [Decitabine] (partner 2 µM)
Method in brief: as §1

MK-2206 + Luminespib = compound: NC1(c2ccc(-c3nc4ccn5c(=O)[nH]nc5c4cc3-c3ccccc3)cc2)CCC1 [MK-2206] + CCNC(=O)c1noc(-c2cc(C(C)C)c(O)cc2O)c1-c1ccc(CN2CCOCC2)cc1 [Luminespib] (partner 0.01 µM)
Method in brief: as §1

MK-2206 + Foretinib = compound: NC1(c2ccc(-c3nc4ccn5c(=O)[nH]nc5c4cc3-c3ccccc3)cc2)CCC1 [MK-2206] + COc1cc2c(Oc3ccc(NC(=O)C4(C(=O)Nc5ccc(F)cc5)CC4)cc3F)ccnc2cc1OCCCN1CCOCC1 [Foretinib] (partner 0.25 µM)
Method in brief: as §1

Pictilisib + Palbociclib = compound: CS(=O)(=O)N1CCN(Cc2cc3nc(-c4cccc5[nH]ncc45)nc(N4CCOCC4)c3s2)CC1 [Pictilisib] + CC(=O)c1c(C)c2cnc(Nc3ccc(N4CCNCC4)cn3)nc2n(C2CCCC2)c1=O [Palbociclib] (partner 0.5 µM)
Method in brief: as §1

| Cell Line | relative viability (Pictilisib + Navitoclax; first compound 0.02 µM) | relative viability (Pictilisib + Navitoclax; first compound 0.06325 µM) | relative viability (Pictilisib + Navitoclax; first compound 0.6325 µM) | relative viability (Pictilisib + Navitoclax; first compound 2 µM) | relative viability (MK-2206 + Decitabine; first compound 0.01 µM) | relative viability (MK-2206 + Decitabine; first compound 0.03162 µM) | relative viability (MK-2206 + Decitabine; first compound 0.3162 µM) | relative viability (MK-2206 + Decitabine; first compound 1 µM) | relative viability (MK-2206 + Luminespib; first compound 0.01 µM) | relative viability (MK-2206 + Luminespib; first compound 0.03162 µM) | relative viability (MK-2206 + Luminespib; first compound 0.3162 µM) | relative viability (MK-2206 + Luminespib; first compound 1 µM) | relative viability (MK-2206 + Foretinib; first compound 0.01 µM) | relative viability (MK-2206 + Foretinib; first compound 0.03162 µM) | relative viability (MK-2206 + Foretinib; first compound 0.3162 µM) | relative viability (MK-2206 + Foretinib; first compound 1 µM) | relative viability (Pictilisib + Palbociclib; first compound 0.02 µM) | relative viability (Pictilisib + Palbociclib; first compound 0.06325 µM) | relative viability (Pictilisib + Palbociclib; first compound 0.6325 µM) | relative viability (Pictilisib + Palbociclib; first compound 2 µM) |
| --- | --- | --- | --- | --- | --- | --- | --- | --- | --- | --- | --- | --- | --- | --- | --- | --- | --- | --- | --- | --- |
| 201T | 1.23 | 1.18 | 1.24 | 0.792 | 0.817 | 0.892 | 0.882 | 0.842 | 1.01 | 1.05 | 1.09 | 1.03 | 1.1 | 1.2 | 1.13 | 1.1 | 0.332 | 0.377 | 0.332 | 0.284 |
| A549 | 1.32 | 1.25 | 0.919 | 0.401 | 0.304 | 0.26 | 0.24 | 0.294 | – | – | – | – | 0.752 | 0.817 | 0.914 | 0.907 | – | – | – | – |
| A-427 | 0.952 | 0.785 | 1.04 | 0.809 | 0.6 | 0.603 | 0.562 | 0.567 | 0.882 | 0.947 | 0.975 | 0.901 | 1.05 | 1.2 | 1.16 | 1.15 | 0.512 | 0.511 | 0.504 | 0.508 |
| ABC-1 | – | – | – | – | 1.19 | 1.25 | 1.06 | 1.02 | 0.601 | 0.334 | 0.481 | 0.391 | 1.16 | 0.965 | 1.17 | 1.07 | 0.683 | 0.583 | 0.469 | 0.416 |
| BEN | 0.0665 | 0.0632 | 0.0606 | 0.0433 | 0.909 | 0.673 | 0.679 | 0.643 | 0.404 | 0.484 | 0.274 | 0.495 | 0.687 | 0.76 | 0.709 | 0.606 | 0.442 | 0.488 | 0.443 | 0.439 |
| CAL-12T | 1.29 | 1.24 | 1.2 | 1.07 | – | – | – | – | 0.362 | 0.515 | 0.457 | 0.477 | 1.07 | 0.962 | 1.15 | 1.19 | 0.385 | 0.604 | 0.457 | 0.167 |
| COR-L23 | 1.1 | 1.15 | 0.949 | 0.561 | 0.411 | 0.417 | 0.421 | 0.388 | 0.713 | 0.695 | 0.581 | 0.529 | 1.1 | 0.959 | 1.12 | 0.948 | 0.335 | 0.349 | 0.273 | 0.208 |
| COR-L 105 | 0.739 | 0.77 | 0.679 | 0.521 | 0.656 | 0.568 | 0.624 | 0.779 | 0.868 | 0.803 | 0.888 | 0.729 | 1.08 | 0.856 | 0.984 | 1.06 | 0.429 | 0.477 | 0.423 | 0.399 |
| Calu-6 | 0.911 | 0.855 | 0.656 | 0.569 | – | – | – | – | – | – | – | – | 0.939 | 0.99 | 0.837 | 0.937 | – | – | – | – |
| ChaGo-K-1 | 1.19 | 1.32 | 0.987 | 0.826 | 0.533 | 0.511 | 0.514 | 0.526 | 0.668 | 0.661 | 0.541 | 0.679 | 0.969 | 0.974 | 0.922 | 0.93 | 0.942 | 0.954 | 0.844 | 0.72 |
| EBC-1 | 0.38 | 0.412 | 0.164 | 0.126 | – | – | – | – | – | – | – | – | 0.0881 | 0.12 | 0.117 | 0.106 | – | – | – | – |
| EKVX | 0.971 | 0.958 | 0.675 | 0.377 | 0.359 | 0.339 | 0.324 | 0.322 | 0.991 | 0.872 | 0.801 | 0.69 | 0.877 | 0.673 | 0.855 | 0.387 | 0.378 | 0.348 | 0.348 | 0.184 |
| EMC-BAC-2 | 1.1 | 1.14 | 1.07 | 0.649 | 0.98 | 0.956 | 0.939 | 0.829 | 1.22 | 1.18 | 1.08 | 1.07 | 1.06 | 1.01 | 0.905 | 0.885 | 0.502 | 0.498 | 0.401 | 0.337 |
| EPLC-272H | 1.32 | 1.05 | 1.01 | 0.733 | 0.392 | 0.345 | 0.364 | 0.392 | 0.585 | 0.263 | 0.338 | 0.323 | 0.811 | 0.686 | 0.649 | 0.633 | 0.348 | 0.298 | 0.317 | 0.243 |
| H3255 | 0.626 | 0.516 | 0.498 | 0.173 | 0.611 | 0.628 | 0.51 | 0.502 | 0.872 | 1.12 | 0.754 | 0.835 | 0.866 | 0.971 | 0.731 | 0.746 | 0.314 | 0.375 | 0.297 | 0.292 |
| HARA | 1.2 | 1.13 | 1.09 | 1.08 | 0.435 | 0.481 | 0.551 | 0.587 | 0.798 | 1.06 | 0.77 | 0.839 | 0.944 | 0.951 | 0.929 | 0.809 | 0.305 | 0.269 | 0.187 | 0.161 |
| HCC-15 | 0.634 | 0.644 | 0.601 | 0.328 | 0.63 | 0.774 | 0.549 | 0.353 | 0.404 | 0.232 | 0.413 | 0.292 | 0.971 | 1.04 | 0.958 | 0.892 | 0.682 | 0.704 | 0.678 | 0.475 |
